Results from PubChem BioAssay (NCI).
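Following 48 hours of exposure in 96-well plates, responses at five concentrations were used to interpolate endpoints linearly. The concentration for 50% growth inhibition is given as GI50. At the TGI there is no net growth.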

Assays:
Experiment in all cases: growth of human tumour cells (NCI), 48 h
[1] = system: UACC-257 melanoma
[2] = system: RPMI-8226 leukemia
[3] = system: T-47D breast
[4] = system: HOP-62 NSCLC
[5] = system: EKVX NSCLC
[6] = system: CAKI-1 renal
[7] = system: ACHN renal
[8] = system: HT29 colon
[9] = system: A549 NSCLC
[10] = system: SW-620 colon
[11] = system: MALME-3M melanoma
[12] = system: SNB-75 CNS
[13] = system: OVCAR-4 ovarian
[14] = system: BT-549 breast
[15] = system: OVCAR-5 ovarian
[16] = system: 786-0 renal
[17] = system: HS 578T breast
[18] = system: NCI-H23 lung
[19] = system: HCC-2998 colon
[20] = system: SK-OV-3 ovarian
[21] = system: OVCAR-8 ovarian
[22] = system: KM12 colon
[23] = system: SK-MEL-28 melanoma
[24] = system: RXF 393 renal
[25] = system: SF-268 CNS
[26] = system: MDA-MB-468 breast
[27] = system: CCRF-CEM leukemia
[28] = system: HCT-116 colon
[29] = system: K-562 leukemia
[30] = system: MDA-MB-435
[31] = system: SF-539 CNS
[32] = system: DU-145 prostate
[33] = system: IGROV1 ovarian
[34] = system: LOX IMVI melanoma
[35] = system: SF-295 CNS
[36] = system: NCI-H460 lung
[37] = system: COLO 205 colon
[38] = system: SK-MEL-2 melanoma
[39] = system: NCI/ADR-RES ovarian
[40] = system: NCI-H226 lung
[41] = system: SN12C renal
[42] = system: SK-MEL-5 melanoma
[43] = system: M14 melanoma
[44] = system: MCF7 breast
[45] = system: SNB-19 CNS
[46] = system: NCI-H522 lung
[47] = system: HL-60(TB) leukemia
[48] = system: U251 CNS
[49] = system: PC-3 prostate
[50] = system: OVCAR-3 ovarian
[51] = system: MDA-MB-231 breast
[52] = system: HCT-15 colon
[53] = system: TK-10 renal
[54] = system: UACC-62 melanoma
[55] = system: UO-31 renal
[56] = system: MOLT-4 leukemia
[57] = system: SR leukemia

N#Cc1cc(-c2ccc3ncnc(N4CCc5cc(F)c(Cl)cc54)c3c2)cnc1N
GI50 [1]: 4.45 µM
TGI [1]: > 100 µM
GI50 [2]: 0.992 µM
TGI [2]: > 100 µM
GI50 [3]: 1.49 µM
TGI [3]: > 100 µM
GI50 [4]: 3.75 µM
TGI [4]: > 100 µM
GI50 [5]: 0.94 µM
TGI [5]: > 100 µM
GI50 [6]: 0.786 µM
TGI [6]: > 100 µM
GI50 [7]: 0.85 µM
TGI [7]: > 100 µM
GI50 [8]: 2.65 µM
TGI [8]: > 100 µM
GI50 [9]: 1.88 µM
TGI [9]: > 100 µM
GI50 [10]: 2.62 µM
TGI [10]: > 100 µM
GI50 [11]: 2.93 µM
TGI [11]: 45.5 µM
GI50 [12]: 0.838 µM
TGI [12]: > 100 µM
GI50 [13]: 3.7 µM
TGI [13]: > 100 µM
GI50 [14]: 1.23 µM
TGI [14]: 32.6 µM
GI50 [15]: 5.21 µM
TGI [15]: > 100 µM
GI50 [16]: 0.435 µM
TGI [16]: 21.9 µM
GI50 [17]: 0.633 µM
TGI [17]: 7.71 µM
GI50 [18]: 3.34 µM
TGI [18]: > 100 µM
GI50 [19]: 2.07 µM
TGI [19]: > 100 µM
GI50 [20]: 2.92 µM
TGI [20]: > 100 µM
GI50 [21]: 2.34 µM
TGI [21]: > 100 µM
GI50 [22]: 15.9 µM
TGI [22]: > 100 µM
GI50 [23]: 2.81 µM
TGI [23]: > 100 µM
GI50 [24]: 0.316 µM
TGI [24]: 2.94 µM
GI50 [25]: 2.31 µM
TGI [25]: > 100 µM
GI50 [26]: 0.227 µM
TGI [26]: 0.88 µM
GI50 [27]: 0.575 µM
TGI [27]: > 100 µM
GI50 [28]: 2.11 µM
TGI [28]: 10.4 µM
GI50 [29]: 3.23 µM
TGI [29]: > 100 µM
GI50 [30]: 4.15 µM
TGI [30]: 29.8 µM
GI50 [31]: 1.87 µM
TGI [31]: > 100 µM
GI50 [32]: 1.49 µM
TGI [32]: > 100 µM
GI50 [33]: 0.365 µM
TGI [33]: 3.01 µM
GI50 [34]: 1.6 µM
TGI [34]: 16.9 µM
GI50 [35]: 3.23 µM
TGI [35]: > 100 µM
GI50 [36]: 1.9 µM
TGI [36]: 6.52 µM
GI50 [37]: 1.9 µM
TGI [37]: > 100 µM
GI50 [38]: 17.1 µM
TGI [38]: > 100 µM
GI50 [39]: 2.41 µM
TGI [39]: > 100 µM
GI50 [40]: 1.38 µM
TGI [40]: > 100 µM
GI50 [41]: 1.05 µM
TGI [41]: 11.2 µM
GI50 [42]: 3.03 µM
TGI [42]: > 100 µM
GI50 [43]: 3.09 µM
TGI [43]: > 100 µM
GI50 [44]: 0.532 µM
TGI [44]: 4.05 µM
GI50 [45]: 3.41 µM
TGI [45]: > 100 µM
GI50 [46]: 3.34 µM
TGI [46]: > 100 µM
GI50 [47]: 0.422 µM
TGI [47]: > 100 µM
GI50 [48]: 2.71 µM
TGI [48]: > 100 µM
GI50 [49]: 1.75 µM
TGI [49]: > 100 µM
GI50 [50]: 1.47 µM
TGI [50]: > 100 µM
GI50 [51]: 2.45 µM
TGI [51]: 9.48 µM
GI50 [52]: 1.68 µM
TGI [52]: > 100 µM
GI50 [53]: 0.993 µM
TGI [53]: > 100 µM
GI50 [54]: 3.39 µM
TGI [54]: > 100 µM
GI50 [55]: 0.278 µM
TGI [55]: > 100 µM
GI50 [56]: 1.63 µM
TGI [56]: 11.4 µM
GI50 [57]: 1.01 µM
TGI [57]: 10 µM
